{"source": "patent US12440475B2", "about": "“Hodgkin lymphoma therapy” (priority 2016, dated 2025)", "key": {"[1]": {"system": "L428 cells", "experiment": "Cytogenetic analysis of cells from xenografted mice", "assay_type": "in vivo, NSG mice", "settings": "different doses, including a single dose of 60 mg/kg", "experimental": "Separated cells were cultured in the presence of RPMI 1640 supplemented with 10% Fetal Calf Serum (FCS) and antibiotics, colcemid (0.1 μg/ml) added 2 h before harvesting, and the slides with metaphase chromosomes prepared following the standard methanol/acetic acid (3/1, v/v) procedure.\nFour new cell lines were generated after one month of in vitro culture following 24 hour of exposure to EDO-S101. Fluorescence in situ hybridysation (FISH) was performed using a combination of standard procedures from the recommended protocols for chromosomal analysis, following telomere and centromere staining, using peptide nucleic acid (PNA) probes in order to detect unstable chromosomal aberrations and to delimit the chromosome territory. M-FISH was performed using multi-FISH probes (Metasystems GmbH, Altlussheim, Germany), according to the manufacturer's recommendations on the same slide. Images of hybridized metaphases were captured using a charge coupled device camera (Zeiss, Thornwood, NY) coupled to a Zeiss Axioplan microscope and processed using ISIS software (Metasystems).\nThe ocular tumour masses were harvested, as well as cells which infiltrated the liver. Five new cell lines were established from ocular tumours and the livers of both control mice (PBS or vehicle). […]"}, "[2]": {"system": "L540", "experiment": "Clonogenic survival in methylcellulose, L540", "assay_type": "cell-based, human", "settings": "any dose (0.1, 0.5, 1, 10 and 20 μmol)", "experimental": "In all examples, the human Hodgkin lymphoma-derived cell lines L428, L428-c, KMH2, L591, L540, L1236, HDLM2 and SUP-HD were obtained from Dr Steffen Junker (Aarhus University Denmark). All cell lines were cultured in Gibco RPMI 1640 medium supplemented with Glutamax, 10% FBS and antibiotics at 37° C. […] The immunophenotype, P53 status and MSI characterization of the Hodgkin lymphoma cell lines was determined using anti-CD30, CD15, CD20 and CD14 antibodies.\nThis test was performed on four Hodgkin lymphoma cell lines (L428, L428s, KMH2 and L540). Each was cultured with EDO-S101 at doses of 0, 0.1, 0.5, 1, 10 and 20 μmol in DMSO. The cell lines were cultured in methylcellulose (Stem cell Technologies) at a concentration of 10^5/ml at 37° C. and 5% CO2. The surviving fraction was determined by measuring the viability of colonies generated before and after exposure. Only colonies with more than 50 cells were counted. Each data point represents the average and SD from three independent experiments performed in triplicate."}, "[3]": {"system": "L428 cells", "experiment": "Orbital tumour mass at injection site in xenografted NSG mice", "assay_type": "in vivo", "settings": "after EDO-S101 injection", "excerpt": "Immunodeficient NOD-SCID-gammac−/− (NSG) mice aged 5 to 6 weeks were purchased from Charles River (NOD.Cg-Prkdcscid II2rgtm1Wjl/SzJ). The mice arrived two weeks before the beginning of the experiments and were housed in micro-isolator cages during the entire course of the study. Immediately prior to the injection of Hodgkin lymphoma cells, mice were exposed to 3 Gy gamma irradiation using an IBL637 ^137Cs irradiator at a dose rate of 0.61 Gy/min. From 10^3 to 10^6 cells, either from the original cell lines or following amplification, were injected intravenously via the retro-orbital sinus. The mice were sacrificed by cervical dislocation and different organs were analysed and tumoural infiltration examined using multiple techniques.\nTwo independent experiments were performed to investigate the dose-effect of EDO-S101 in NSG mice eight weeks after xenografting with L428 cells as in Example 8. The aim of the protocol shown in FIG. 8B was to evaluate the effect of sequential treatment with a moderate dose of 60 mg/kg given at an interval of three weeks.\nSome mice developed an orbital tumour mass at the site of the injection. […] In one mouse only that was treated with two doses of 60 mg/kg of EDO-S101, a regression of the orbital tumour was initially observed followed by re-establishment of the orbital mass 3 weeks later. […]"}}, "data": [{"smiles": "Cn1c(CCCCCCC(=O)NO)nc2cc(N(CCCl)CCCl)ccc21", "note": "[EDO-S101]", "values": [{"measurement": "metaphases and cell lines from cells of treated mice", "setting": "[1]", "result": "not possible to obtain either metaphases from direct culture or establish cell lines"}, {"measurement": "clones observed (clonogenic survival)", "setting": "[2]", "result": "No clone was observed"}, {"measurement": "orbital tumour mass at site of injection", "setting": "[3]", "result": "signification regression"}]}]}
